Measurements as given in ChEMBL document CHEMBL1629708, “Discovery of dihydrothieno- and dihydrofuropyrimidines as potent pan Akt inhibitors” (Bioorg Med Chem Lett, 2010).

Key:
[1] = Ratio of IC50 for Akt1 to IC50 for Akt3
[2] = biological target: T1, RAC-alpha serine/threonine-protein kinase (Homo sapiens, UniProt P31749); test: Inhibition of Akt1
[3] = Inhibition of PKA
[4] = biological target: T1, RAC-alpha serine/threonine-protein kinase; test: Inhibition of Akt in human LNCaP cell assessed as inhibition of PRAS40 phosphorylation; format: cell-based
[5] = biological target: Ribosomal protein S6 kinase beta-1 (Homo sapiens) (UniProt P23443); test: Inhibition of p70S6K at 1 uM
[6] = biological target: Protein kinase C eta type (Homo sapiens) (UniProt P24723); test: Inhibition of PKCeta at 1 uM
[7] = Inhibition of PKA at 1 uM
[8] = Clearance in rat at 5 mg/kg, iv; format: ADME, organism-based; parameters: dose 5 mg/kg, route intravenous; settings: in vivo
[9] = Bioavailability in rat at 50 mg/kg, po; format: ADME, organism-based; settings: in vivo
[10] = Plasma concentration in rat at 50 mg/kg, po; format: ADME, organism-based; parameters: dose 50 mg/kg, route oral
[11] = Plasma protein binding in rat; format: ADME, cell-free; settings: read-out: PPB (converted)
Plasma [12] = test: Increase in plasma drug level in nude mouse xenografted with human U87 cells at 50 to 100 mg/kg, po after 1 hr; format: ADME, organism-based, U-87MG ATCC; parameters: dose 50-100 mg/kg, route oral; settings: in vivo
Plasma [13] = test: Increase in plasma drug level in nude mouse xenografted with human U87 cells at 200 mg/kg, po after 1 hr; format: ADME, organism-based, U-87MG ATCC; parameters: dose 200 mg/kg, route oral; settings: in vivo
[14] = Inhibition of PRAS40 phosphorylation in human U87 cells xenografted in mouse at 50 mg/kg, po after 1 hr; format: functional, U-87MG ATCC; settings: U-87 MG
[15] = Inhibition of PRAS40 phosphorylation in human U87 cells xenografted in mouse at 50 mg/kg, po after 4 hr; format: functional, U-87MG ATCC; settings: U-87 MG
[16] = Inhibition of PRAS40 phosphorylation in human U87 cells xenografted in mouse at 200 mg/kg, po after 4 hrs; format: functional, U-87MG ATCC; settings: U-87 MG
[17] = Inhibition of PRAS40 phosphorylation in human U87 cells xenografted in mouse at 200 mg/kg, po after 12 hrs; format: functional, U-87MG ATCC; settings: U-87 MG
PC-3 [18] = test: Antitumor activity against human PC3 prostate tumor cell xenografted in nude mouse assessed as inhibition of tumor growth at 25 mg/kg, po qd for 14 days; format: functional; parameters: scale not given: the % may be the effect or the level left
PC-3 [19] = test: Antitumor activity against human PC3 prostate tumor cell xenografted in nude mouse assessed as inhibition of tumor growth at 50 mg/kg, po qd for 14 days; format: functional; parameters: scale not given: the % may be the effect or the level left
PC-3 [20] = test: Antitumor activity against human PC3 prostate tumor cell xenografted in nude mouse assessed as inhibition of tumor growth at 100 mg/kg, po qd for 14 days; format: functional; settings: PC-3, 336 h
PC-3 [21] = test: Antitumor activity against human PC3 prostate tumor cell xenografted in nude mouse assessed as inhibition of tumor growth at 200 mg/kg, po qd for 14 days; format: functional; parameters: scale not given: the % may be the effect or the level left
Plasma [22] = test: Increase in plasma drug level in nude mouse xenografted with human U87 cells at 50 to 100 mg/kg, po after 4 hrs; format: ADME, organism-based, U-87MG ATCC; parameters: dose 50-100 mg/kg, route oral; settings: in vivo
Plasma [23] = test: Increase in plasma drug level in nude mouse xenografted with human U87 cells at 200 mg/kg, po after 4 hrs; format: ADME, organism-based, U-87MG ATCC; parameters: dose 200 mg/kg, route oral; settings: in vivo
[24] = Ratio of IC50 for Akt1 to IC50 for Akt2

T1 sequence (P31749 whole entry): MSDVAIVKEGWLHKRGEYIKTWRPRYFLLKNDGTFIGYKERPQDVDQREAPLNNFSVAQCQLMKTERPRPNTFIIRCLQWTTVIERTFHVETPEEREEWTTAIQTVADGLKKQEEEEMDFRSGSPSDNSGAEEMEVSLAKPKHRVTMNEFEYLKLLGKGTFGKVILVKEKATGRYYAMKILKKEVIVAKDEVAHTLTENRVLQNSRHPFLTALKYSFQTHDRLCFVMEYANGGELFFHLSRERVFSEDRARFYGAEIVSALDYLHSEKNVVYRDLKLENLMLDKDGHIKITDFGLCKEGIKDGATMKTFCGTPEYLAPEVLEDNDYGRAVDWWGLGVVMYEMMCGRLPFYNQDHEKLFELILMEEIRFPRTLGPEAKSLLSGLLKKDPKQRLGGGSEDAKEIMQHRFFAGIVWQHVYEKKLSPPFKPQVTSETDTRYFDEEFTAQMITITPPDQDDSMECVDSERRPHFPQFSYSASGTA
Protein kinase C eta type (Homo sapiens), sequence (P24723 whole entry): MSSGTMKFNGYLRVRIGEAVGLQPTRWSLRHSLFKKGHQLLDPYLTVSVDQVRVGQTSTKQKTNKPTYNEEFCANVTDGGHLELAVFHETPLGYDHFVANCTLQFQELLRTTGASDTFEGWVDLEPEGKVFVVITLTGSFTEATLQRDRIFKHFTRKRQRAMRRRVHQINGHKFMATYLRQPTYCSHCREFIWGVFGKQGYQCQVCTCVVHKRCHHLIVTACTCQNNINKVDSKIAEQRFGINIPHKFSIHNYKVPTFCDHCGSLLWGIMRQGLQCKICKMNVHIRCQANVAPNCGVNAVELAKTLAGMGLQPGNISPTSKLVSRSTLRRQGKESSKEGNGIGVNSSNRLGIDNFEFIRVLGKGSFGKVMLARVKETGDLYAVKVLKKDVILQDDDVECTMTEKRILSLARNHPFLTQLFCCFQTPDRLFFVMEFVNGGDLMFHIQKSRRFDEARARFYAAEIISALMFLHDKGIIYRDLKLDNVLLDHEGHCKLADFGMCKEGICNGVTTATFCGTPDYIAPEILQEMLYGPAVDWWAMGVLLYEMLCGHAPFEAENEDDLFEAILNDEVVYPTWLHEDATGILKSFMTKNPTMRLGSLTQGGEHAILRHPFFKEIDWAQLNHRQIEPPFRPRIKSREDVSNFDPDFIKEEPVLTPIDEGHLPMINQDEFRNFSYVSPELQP
Ribosomal protein S6 kinase beta-1 (Homo sapiens), sequence (P23443 whole entry, looked up): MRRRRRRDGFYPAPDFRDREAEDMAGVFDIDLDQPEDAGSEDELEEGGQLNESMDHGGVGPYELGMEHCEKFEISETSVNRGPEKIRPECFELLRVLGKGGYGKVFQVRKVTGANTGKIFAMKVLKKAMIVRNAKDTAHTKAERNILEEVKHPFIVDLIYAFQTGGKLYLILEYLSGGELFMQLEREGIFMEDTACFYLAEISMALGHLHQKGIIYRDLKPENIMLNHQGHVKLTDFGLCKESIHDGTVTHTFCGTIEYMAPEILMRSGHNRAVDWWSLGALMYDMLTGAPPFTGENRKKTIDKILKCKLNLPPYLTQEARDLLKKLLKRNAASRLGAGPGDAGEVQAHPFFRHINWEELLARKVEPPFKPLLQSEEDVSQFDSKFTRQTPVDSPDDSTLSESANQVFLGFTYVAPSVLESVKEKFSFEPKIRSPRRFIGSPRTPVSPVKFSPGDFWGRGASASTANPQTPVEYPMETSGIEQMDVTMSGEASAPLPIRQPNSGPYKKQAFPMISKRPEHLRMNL

With CC(C)NCC(C(=O)N1CCN(c2ncnc3c2C(C)OC3)CC1)c1ccc(Cl)cc1 (stereo unspecified) the Ratio IC50 [1] was 3.

C[C@@H]1SCc2ncnc(N3CCN(C(=O)C(Cc4ccc(Cl)cc4)C4(N)CC4)CC3)c21 (stereo partly specified) gave an IC50 [2] of 42 nM, an IC50 [3] of 308 nM and an IC50 [4] of 2470 nM.

Molecule CC(C)NCC(Cc1ccc(F)c(F)c1)C(=O)N1CCN(c2ncnc3c2[C@H](C)SC3)CC1 (stereo partly specified) has an IC50 [2] of 10 nM, an IC50 [3] of 285 nM and an IC50 [4] of 759 nM.

Molecule N[C@H](Cc1ccc(Cl)cc1)C(=O)N1CCN(c2ncnc3c2CS(=O)(=O)C3)CC1 has an IC50 [2] of 52 nM, an IC50 [3] of 1300 nM and an IC50 [4] of 21000 nM.

In the case of C[C@@H]1SCc2ncnc(N3CCN(C(=O)[C@H](N)Cc4ccc(Cl)cc4)CC3)c21, the IC50 [2] is reported as 1 nM, the IC50 [3] is reported as 13 nM and the IC50 [4] is reported as 184 nM.

Work on CC(C)NCC(Cc1ccc(Cl)cc1)C(=O)N1CCN(c2ncnc3c2[C@H](C)SC3)CC1 (stereo partly specified) yielded an IC50 [2] of 3 nM, an IC50 [3] of 80 nM and an IC50 [4] of 159 nM. For the same molecule, the inhibition [5] was greater than 50%, the inhibition [6] was greater than 50% and the inhibition [7] was greater than 50%.

In the case of C[C@@H]1SCc2ncnc(N3CCN(C(=O)[C@H](N)Cc4ccc(Cl)c(F)c4)CC3)c21, the IC50 [2] is reported as 2 nM, the IC50 [3] is reported as 8 nM and the IC50 [4] is reported as 176 nM.

In the case of C[C@@H]1SCc2ncnc(N3CCN(C(=O)[C@H](N)Cc4c[nH]c5ccccc45)CC3)c21, the IC50 [4] is reported as 3630 nM.

In the case of C[C@@H]1OCc2ncnc(N3CCN(C(=O)[C@H](N)Cc4ccc(Cl)cc4)CC3)c21, the IC50 [2] is reported as 7 nM, the IC50 [3] is reported as 61 nM and the IC50 [4] is reported as 615 nM.

In the case of Cc1c[nH]c2ncnc(N3CCN(C(=O)[C@H](N)Cc4ccc(F)cc4)CC3)c12, the IC50 [3] is reported as 6 nM and the IC50 [4] is reported as 160 nM.

Molecule C[C@H]1SCc2ncnc(N3CCN(C(=O)[C@H](N)Cc4ccc(Cl)cc4)CC3)c21 has an IC50 [2] of 260 nM, an IC50 [3] of 1710 nM and an IC50 [4] of 18500 nM.

Molecule CC(C)NCC(Cc1ccc(Cl)c(F)c1)C(=O)N1CCN(c2ncnc3c2[C@H](C)SC3)CC1 (stereo partly specified) has an IC50 [2] of 2 nM, an IC50 [3] of 30 nM and an IC50 [4] of 92 nM.

For N[C@H](Cc1ccc(Cl)cc1)C(=O)N1CCN(c2ncnc3c2CSC3)CC1, the IC50 [2] was 22 nM, the IC50 [3] was 223 nM and the IC50 [4] was 3850 nM.

Work on CC(C)NC[C@@H](Cc1ccc(Cl)cc1)C(=O)N1CCN(c2ncnc3c2[C@H](C)SC3)CC1 yielded an IC50 [2] of 127 nM and an IC50 [3] of 5620 nM.

With CC(C)NC[C@H](Cc1ccc(Cl)cc1)C(=O)N1CCN(c2ncnc3c2[C@H](C)OC3)CC1 the IC50 [2] was 3 nM, the IC50 [3] was 52 nM and the IC50 [4] was 125 nM. For the same molecule, the inhibition [5] was greater than 50%, the inhibition [6] was greater than 50% and the inhibition [7] was greater than 50%.

CC1SCc2ncnc(N3CCN(C(=O)[C@H](N)Cc4ccc(Cl)cc4)CC3)c21 (stereo partly specified) gave an IC50 [2] of 4 nM, an IC50 [3] of 31 nM and an IC50 [4] of 310 nM.

For C[C@@H]1OCc2ncnc(N3CCN(C(=O)C(Cc4ccc(Cl)c(F)c4)CC(C)(C)N)CC3)c21 (stereo partly specified), the IC50 [2] was 18 nM, the IC50 [3] was 91 nM and the IC50 [4] was 592 nM.

Cc1ccc(CC(CNC(C)C)C(=O)N2CCN(c3ncnc4c3[C@H](C)SC4)CC2)cc1 (stereo partly specified) showed an IC50 [2] of 3 nM, an IC50 [3] of 101 nM and an IC50 [4] of 216 nM.

Work on CC(C)NC[C@H](Cc1ccc(Cl)cc1)C(=O)N1CCN(c2ncnc3c2[C@H](C)SC3)CC1 yielded an IC50 [2] of 1 nM, an IC50 [3] of 35 nM and an IC50 [4] of 137 nM. It also gave a clearance [8] of 94 mL/min/kg, a bioavailability [9] greater than 100% and an AUC [10] of 56200 ng·h/mL. For the same molecule, the fraction unbound [11] was 0.3, the Activity (Plasma [12]) was “Active” and the Activity (Plasma [13]) was “Active”. The inhibition in vivo at 50 mg/kg [14] was 85%, the inhibition in vivo at 50 mg/kg [15] was 60% and the inhibition in vivo at 200 mg/kg [16] was 83%. It also gave an inhibition in vivo at 200 mg/kg [17] of 65%, an Activity (PC-3 [18]) of 15% and an Activity (PC-3 [19]) of 42%. For the same molecule, the inhibition in vivo at 100 mg/kg (PC-3 [20]) was 61%, the Activity (PC-3 [21]) was 84% and the Activity (Plasma [22]) was “Active”. The Activity (Plasma [23]) was “Active”.

With C[C@@H]1SCc2ncnc(N3CCN(C(=O)C(Cc4ccc(Cl)cc4)CN4CCCC4)CC3)c21 (stereo partly specified) the IC50 [2] was 3 nM, the IC50 [3] was 75 nM and the IC50 [4] was 178 nM.

With C[C@@H]1SCc2ncnc(N3CCN(C(=O)[C@H](N)Cc4ccc(F)cc4)CC3)c21 the IC50 [2] was 11 nM, the IC50 [3] was 104 nM and the IC50 [4] was 1590 nM.

CC(C)NCC(Cc1ccc(Cl)c(F)c1)C(=O)N1CCN(c2ncnc3c2[C@H](C)OC3)CC1 (stereo partly specified) showed an IC50 [2] of 6 nM, an IC50 [3] of 88 nM and an IC50 [4] of 315 nM.

Cc1ccc(CC(CNC(C)C)C(=O)N2CCN(c3ncnc4c3[C@H](C)OC4)CC2)cc1 (stereo partly specified) showed an IC50 [2] of 16 nM, an IC50 [3] of 315 nM and an IC50 [4] of 995 nM.

Work on C[C@@H]1SCc2ncnc(N3CCN(C(=O)[C@H](N)Cc4ccc(F)c(F)c4)CC3)c21 yielded an IC50 [2] of 4 nM, an IC50 [3] of 30 nM and an IC50 [4] of 602 nM.

CCC1SCc2ncnc(N3CCN(C(=O)[C@H](N)Cc4ccc(Cl)cc4)CC3)c21 (stereo partly specified) gave an IC50 [2] of 7 nM, an IC50 [3] of 52 nM and an IC50 [4] of 1200 nM.

In the case of CC(C)NCC(C(=O)N1CCN(c2ncnc3c2C(C)SC3)CC1)c1ccc(Cl)cc1 (stereo unspecified), the Ratio IC50 [24] is reported as 5.

Molecule C[C@@H]1SCc2ncnc(N3CCN(C(=O)C(Cc4ccc(Cl)c(F)c4)CC(C)(C)N)CC3)c21 (stereo partly specified) has an IC50 [2] of 7 nM, an IC50 [3] of 63 nM and an IC50 [4] of 587 nM.

C[C@@H]1SCc2ncnc(N3CCN(C(=O)C(Cc4ccc(Cl)c(F)c4)CC4(N)CC4)CC3)c21 (stereo partly specified) showed an IC50 [2] of 3 nM, an IC50 [3] of 30 nM and an IC50 [4] of 250 nM.

C[C@@H]1SCc2ncnc(N3CCN(C(=O)C(Cc4ccc(Cl)cc4)CC(C)(C)N)CC3)c21 (stereo partly specified) gave an IC50 [2] of 6 nM, an IC50 [3] of 73 nM and an IC50 [4] of 438 nM.
